The values that follow come from BigSolDB 2.1.

SMILES strings stand for the structures.

For `Cc1c(O)c(=O)ccn1C`, the solubility (mole fraction) (as a rule, solubility expressed as the solute's share of all molecules) reads like this: (in acetonitrile, 283.1 K) 0.000187; (in acetonitrile, 293.1 K) 0.000324; (in acetonitrile, 303.1 K) 0.000599; (in acetonitrile, 313.1 K) 0.00091; (in acetonitrile, 323.1 K) 0.00137; (in ethyl acetate, 283.1 K) 6.77e-05. In addition, the solubility (mole fraction) is 0.000104 (in ethyl acetate, 293.1 K); 0.000155 (in ethyl acetate, 303.1 K); 0.000218 (in ethyl acetate, 313.1 K); 0.000318 (in ethyl acetate, 323.1 K); 0.00194 (in methanol, 283.1 K); 0.00348 (in methanol, 293.1 K). For the same compound, the solubility (mole fraction) by setting is: (in methanol, 303.1 K) 0.0052; (in methanol, 313.1 K) 0.00775; (in methanol, 323.1 K) 0.0114; (in water, 283.1 K) 0.00184; (in water, 293.1 K) 0.00227; (in water, 303.1 K) 0.0031. The solubility (mole fraction) by setting is: (in water, 313.1 K) 0.00414; (in water, 323.1 K) 0.00532.

For the compound `C=CC1=C(C(=O)O)N2C(=O)[C@@H](NC(=O)/C(=N\OCC(=O)O)c3csc(N)n3)[C@H]2SC1.O.O.O`, the solubility (mole fraction) by setting is: (in acetonitrile, 283.1 K) 8.28e-05; (in acetonitrile, 293.1 K) 0.000105; (in acetonitrile, 303.1 K) 0.000127; (in acetonitrile, 313.1 K) 0.000183; (in acetonitrile, 323.1 K) 0.000292; (in ethyl acetate, 283.1 K) 5.08e-05. In addition, the solubility (mole fraction) is 7.12e-05 (in ethyl acetate, 293.1 K); 0.000129 (in ethyl acetate, 303.1 K); 0.000175 (in ethyl acetate, 313.1 K); 0.00025 (in ethyl acetate, 323.1 K); 0.00635 (in methanol, 283.1 K); 0.00892 (in methanol, 293.1 K). In addition, the solubility (mole fraction) reads like this: (in methanol, 303.1 K) 0.0132; (in methanol, 313.1 K) 0.0209; (in methanol, 323.1 K) 0.0309; (in water, 283.1 K) 9.7e-06; (in water, 293.1 K) 1.45e-05; (in water, 303.1 K) 2.02e-05. The solubility (mole fraction) turned out to be 3.18e-05 (in water, 313.1 K) and 5.09e-05 (in water, 323.1 K).
